Results published in US20090042857A1, “Novel Pharmaceutical” (priority 2006, published 2009).
Counter-ions that a name gives are not always drawn.

Target: T1, androgen receptor (Rattus norvegicus, UniProt P15207)
T1 sequence (P15207 1-902): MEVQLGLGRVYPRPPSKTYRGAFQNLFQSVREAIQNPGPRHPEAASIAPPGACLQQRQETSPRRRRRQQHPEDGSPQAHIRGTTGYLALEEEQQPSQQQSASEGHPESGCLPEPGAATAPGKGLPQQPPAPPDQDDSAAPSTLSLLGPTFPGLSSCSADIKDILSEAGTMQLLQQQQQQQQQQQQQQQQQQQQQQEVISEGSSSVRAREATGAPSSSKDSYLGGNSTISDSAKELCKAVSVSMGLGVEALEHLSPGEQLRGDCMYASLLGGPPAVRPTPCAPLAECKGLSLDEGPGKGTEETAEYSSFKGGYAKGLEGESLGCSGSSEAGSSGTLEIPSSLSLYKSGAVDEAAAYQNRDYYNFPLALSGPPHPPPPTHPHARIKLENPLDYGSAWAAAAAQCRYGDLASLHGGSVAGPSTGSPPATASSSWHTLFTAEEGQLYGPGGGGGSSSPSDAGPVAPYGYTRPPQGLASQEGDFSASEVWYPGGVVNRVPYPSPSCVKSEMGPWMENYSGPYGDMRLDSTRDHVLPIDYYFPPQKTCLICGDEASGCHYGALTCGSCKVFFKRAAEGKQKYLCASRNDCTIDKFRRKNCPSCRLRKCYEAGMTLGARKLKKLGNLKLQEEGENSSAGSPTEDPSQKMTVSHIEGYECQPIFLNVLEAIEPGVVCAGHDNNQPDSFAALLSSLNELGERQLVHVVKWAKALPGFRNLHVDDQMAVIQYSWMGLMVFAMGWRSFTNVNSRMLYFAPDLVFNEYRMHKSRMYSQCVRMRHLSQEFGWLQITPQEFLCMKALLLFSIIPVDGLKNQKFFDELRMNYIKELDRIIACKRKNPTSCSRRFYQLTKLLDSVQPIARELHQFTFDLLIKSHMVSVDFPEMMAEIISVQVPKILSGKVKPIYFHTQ
Test: Measurement of organ selective androgen receptor regulating action (organ weights in castrated, testosterone propionate-supplemented rats)
Type: in vivo, Sprague-Dawley male rat
Set-up: from tissue; host or cells: Sprague-Dawley male rat, whole animal (levator ani muscle, prostate, vesicular gland)
Conditions: testosterone propionate 0.5 mg/kg s.c. once a day, twice a day, 1 week
Method: A 3-week-old Sprague-Dawley male rat was castrated, and testosterone•propionate (0.5 mg/kg) was administered subcutaneously once a day from the next day. Simultaneously, a test compound was dissolved in 10% ethanol/corn oil, and orally administered twice a day. The next day of a 1 week administration, the weights of the levator ani muscle, prostate and vesicular gland were measured. The dose of the test compound is indicated in a daily amount.
As the test compounds, compound 114, compound 158, compound 117, compound 119 and compound of Reference Example 2 were used.

[1] = test compound 4.143 mg/kg/day orally
[2] = test compound 13.81 mg/kg/day orally
[3] = test compound 3 mg/kg/day orally
[4] = test compound 10 mg/kg/day orally
[5] = test compound 0.4138 mg/kg/day orally
[6] = test compound 1.379 mg/kg/day orally

4-[(2S,3R)-3-hydroxy-2-methyl-1-pyrrolidinyl]-1-naphtonitrile methanesulfonate [compound 114]
levator ani muscle weight, relative % to control [1]: 142.1% | prostate weight, relative % to control [1]: 90.6% | levator ani muscle weight, relative % to control [2]: 157.7% | prostate weight, relative % to control [2]: 99.1%

C[C@H]1[C@@H](C(C)(C)O)CCN1c1ccc(C#N)c2sccc12 [Reference Example 2, 4-[(2S,3S)-3-(1-hydroxy-1-methylethyl)-2-methylpyrrolidin-1-yl]-1-benzothiophene-7-carbonitrile]
levator ani muscle weight, relative % to control [3]: 108.0% | prostate weight, relative % to control [3]: 92.0% | levator ani muscle weight, relative % to control [4]: 120.1% | prostate weight, relative % to control [4]: 87.5%

C[C@H]1[C@@H](O)CCN1c1ccc(C#N)c2sccc12 [compound 119, 4-[(2S,3S)-3-hydroxy-2-methyl-1-pyrrolidinyl]-1-benzothiophene-7-carbonitrile sulfate]
levator ani muscle weight, relative % to control [5]: 131.5% | prostate weight, relative % to control [5]: 87.8% | levator ani muscle weight, relative % to control [6]: 151.8% | prostate weight, relative % to control [6]: 91.4%
